# Measured values from US10077246B2, “Tricyclic prodrugs” (Glactone Pharma Development AB, priority 2014, dated 2018).
# Experiments:
# [1] = Chemical stability in phosphate buffered saline; format: physicochemical; conditions: for half-life at 10 μM: 0.1 M phosphate buffered saline, 0.1 M PBS pH 7.4, 10 μM, room temperature; for chemical stability in 0.1 M PBS (in words): 0.1 M PBS (pH 7.4)
# Experimental: The chemical stability of test compounds was determined in 96-well plate format. Compounds in DMSO stock solutions were diluted (n=2) in the required matrix (0.1 M phosphate buffered saline) to a concentration of 10 μM (2% DMSO final) and mixed at room temperature on an orbital shaker, with aliquots removed at 2 and 4 hours for testing. DMSO, containing an analytical internal standard, was added to the aliquots, vortex-mixed and analysed immediately by LC-MS/MS. Equivalent T=0 samples were also included, with sample preparation staggered to allow sequential injections of timed aliquots and the T=0 samples.
# The amount of compound remaining (expressed as %) was determined from the MS response in each sample relative to that in the T=0 samples (normalized for internal standard).
# Ln plots of the % remaining were used to determine the half-life of compound disappearance from the relationship:
# t1/2 (min)=−0.693/λ, where λ is the slope of the Ln concentration vs time curve.
# [2] = Pharmacokinetic (PK) study in mice, oral dosing, galiellalactone quantified in plasma; format: in vivo; conditions: for plasma exposure of galiellalactone compared to oral administration of galiellalactone itself (in words) / AUC 0-t / AUC 0-∞: oral 10 mg/kg; for AUC 0-t / AUC 0-∞: galiellalactone (GL) in plasma; for AUC 0-t: 0 minutes to last quantifiable data point; for AUC 0-∞: extrapolated to infinity
# Experimental: The usefulness of the compounds, as defined in the embodiments herein, as prodrugs to enhance the plasma exposure of tricyclic compounds that may be used treating, revoking, mitigating, alleviating and/or preventing different forms of cancer, were evaluated in an in vivo pharmacokinetic (PK) study in mice.
# Doses of the test items were prepared at a drug concentration of 0.5 mg/mL in 5% DMSO in 50 mM citrate buffer (citric acid/sodium citrate), pH 4.0.
# Oral doses were administered in a volume of 20 mL/kg (10 mg/kg) to groups of 24 mice and blood samples taken, under terminal barbiturate anaesthesia, at eight time-points out to 8 hours post-dose (n=3 mice per time-point).
# Blood samples were transferred to tubes containing EDTA as anticoagulant and, as soon as practicable after collection, samples were centrifuged to yield plasma which was immediately frozen awaiting analysis. Following blood collection, brains were removed from all animals for possible future analysis and immediately frozen by immersion in liquid nitrogen. All samples were analyzed using LC-MS/MS.
# Plasma proteins were precipitated and compounds extracted by the addition of three volumes of acetonitrile containing analytical internal standard (reserpine). Samples were centrifuged for 30 minutes at 3452 g in a Sorvall bench centrifuge and the supernatant fractions removed for MS analysis.
# Quantification of the active compound e.g. galiellalactone, was by extrapolation from calibration lines prepared in control mouse plasma and analyzed concurrently with experimental samples and Quality Control (QC) samples prepared in control mouse plasma. If the compounds were instable in mouse plasma, calibration lines were constructed in water for qualitative MS comparison with any signal seen in plasma samples.
# Pharmacokinetic parameters of the test items were determined using the mean data from the n=3 mice at each time-point. Non-compartmental analysis was performed using the software package PK Solutions 2.0 from Summit Research Services. AUC values were calculated by the trapezoidal method.
# AUC 0-t: Area under the plasma drug concentration/time curve from 0 minutes to last quantifiable data point
# AUC 0-∞: Area under the curve from 0 minutes extrapolated to infinity
# PC-3 = test: WST-1 cell proliferation assay, PC-3; format: cell-based; conditions: PC3 (pSTAT3 −), 72 hours/10 μM, percent of untreated control cells
# Experimental: (§1) The functional activity of example 15 in comparison to galiellalactone was evaluated using WST-1 proliferation assay (J. Biol. Chem. 2014, 289:15969-15978) on DU145, PC-3, LNCaP or IL-6 stimulated LNCaP. The cells were cultured in 96-well plates (2000 cells/well in 200 μl of medium) and allowed to set for 24 h. The cells were treated with 10 μM of 4α-fluoro-galiellalactone or galiellalactone for 72 h. Samples were made in triplicate. 20 μl WST-1 solution (Roche Applied Science) was added per well and incubated at 37° C. for 4 h. The absorbance of each well was measured using a scanning multi-well spectrophotometer, ELISA reader at a wavelength of 450 nm and reference wavelength of 690 nm. The results presented in Table 3 below are presented as percent of untreated control cells.
# DU145 = test: WST-1 cell proliferation assay, DU145; format: cell-based; conditions: DU145 (pSTAT3 +), 72 hours/10 μM, percent of untreated control cells
# Experimental: as §1
# LNCaP = test: WST-1 cell proliferation assay, LNCaP; format: cell-based; conditions: LNCaP (pSTAT3 −), 72 hours/10 μM, percent of untreated control cells
# Experimental: as §1
# STAT3 = test: WST-1 proliferation, pSTAT3 negative versus pSTAT3 positive cell lines; format: cell-based; conditions: 10 μM; pSTAT3 negative PC3, LNCaP versus pSTAT3 positive cells
# Experimental: as §1
# On the other hand, the pSTAT3 positive cells are equally sensitive to 4α-fluoro-galiellalactone and galiellalactone.
# IL-6 stimulated LNCaP = test: WST-1 cell proliferation assay, IL-6 stimulated LNCaP; format: cell-based; conditions: LNCaP-IL6 (pSTAT3 +), 72 hours/10 μM, percent of untreated control cells
# Experimental: as §1
# [3] = system: STAT3 expressing DU145 prostate cancer cells; conditions: Prostate 68:269-280 (2008); cited from earlier work
# IL-6/STAT3 signaling = conditions: cited from earlier work
SMILES,half-life at 10 μM [1] [h],AUC 0-t [2] [μg GL/mL•min],AUC 0-∞ [2] [μg GL/mL•min],other results
"CC(=O)N[C@@H](CS[C@H]1C2C(=O)O[C@@H]3CC[C@H](C[C@@H]1C)[C@]23O)C(N)=O (stereo partly drawn) [Example 7, 3β-(N-acetyl L-cysteine amide)-2aβ,3-dihydrogaliellalactone]",> 2.5,,,
"C[C@H]1C[C@H]2CC[C@H]3OC(=O)C([C@@H]1Sc1ccccc1)[C@@]23O (stereo partly drawn) [Example 2, 3β-(Phenylthio)-2aβ,3-dihydrogaliellalactone]",,36,41,
"COC(=O)[C@H](CS[C@H]1C2C(=O)O[C@@H]3CC[C@H](C[C@@H]1C)[C@]23O)NC(=O)OC(C)(C)C (stereo partly drawn) [Example 6, 3β-(N-(tert-butylcarbonate)-L-cysteinemethyl ester)-2aβ,3-dihydrogaliellalactone]",> 2.5,11,17,
"CCCCS[C@H]1C2C(=O)O[C@@H]3CC[C@H](C[C@@H]1C)[C@]23O (stereo partly drawn) [Example 1, 3β-(Butyllthio)-2aβ,3-dihydrogaliellalactone]",,85,102,
"C[C@@]1(F)C=C2C(=O)O[C@@H]3CC[C@H](C1)[C@]23O [Example 15, 4α-fluoro-galiellalactone]",,,,% Remaining Proliferation (PC-3): 68%; % Remaining Proliferation (DU145): 16%; % Remaining Proliferation (LNCaP): 105%; selectivity for STAT3 compared with galiellalactone (in words) (STAT3): significantly more selective; % Remaining Proliferation (IL-6 stimulated LNCaP): 20%
"CCOC(=O)[C@H](CS[C@H]1C2C(=O)O[C@@H]3CC[C@H](C[C@@H]1C)[C@]23O)NC(C)=O (stereo partly drawn) [Example 4, 3β-(N-acetyl L-cysteineethyl ester)-2aβ,3-dihydrogaliellalactone]",,20,22,
"C[C@H]1C[C@H]2CC[C@H]3OC(=O)C([C@@H]1SCCS(=O)(=O)[O-])[C@@]23O.[Na+] (stereo partly drawn) [Example 8, 3β-(ethyl sulphonate)-2aβ,3-dihydrogaliellalactone sodium]",> 2.5,,,
"COC(=O)[C@H](CS[C@H]1C2C(=O)O[C@@H]3CC[C@H](C[C@@H]1C)[C@]23O)NC(C)=O (stereo partly drawn) [Example 3, 3β-(N-acetyl L-cysteinemethyl ester)-2aβ,3-dihydrogaliellalactone]",> 2.5,117,120,plasma exposure of galiellalactone compared to oral administration of galiellalactone itself (in words) [2]: significantly improve; chemical stability in 0.1 M PBS (in words) [1]: chemically stable
COC(=O)[C@H](CS[C@H]1C2C(=O)O[C@@H]3CC[C@H](C[C@@H]1C)[C@]23O)NC(=O)C(C)C (stereo partly drawn) [Example 5],> 2.3,15,21,

# Now from value to compound, other results behind:
half-life at 10 μM [1] [h],AUC 0-t [2] [μg GL/mL•min],AUC 0-∞ [2] [μg GL/mL•min],SMILES,other results
,2.2,2.5,"C[C@H]1C[C@H]2CC[C@H]3OC(=O)C([C@@H]1N1CCCC1)[C@@]23O.Cl (stereo partly drawn) [drawing 42, 3β-(N-pyrrolidine)-2aβ,3-dihydrogaliellalactone, reference compound]",plasma exposure of galiellalactone compared to oral administration of galiellalactone itself (in words) [2]: do not increase the AUC; chemical stability in 0.1 M PBS (in words) [1]: very unstable
0.367,,,COC(=O)C(N)CS[C@H]1C2C(=O)O[C@@H]3CC[C@H](C[C@@H]1C)[C@]23O (stereo partly drawn) [reference compound],
0.233,,,C[C@H]1C[C@H]2CC[C@H]3OC(=O)C([C@@H]1SCC(N)C(=O)O)[C@@]23O (stereo partly drawn) [reference compound],
> 2.5,,,"C[C@H]1C[C@H]2CC[C@H]3OC(=O)C([C@@H]1SCC(NC(=O)CCC(N)C(=O)O)C(=O)NCC(=O)O)[C@@]23O (stereo partly drawn) [Example 9, 3β-(glutathione)-2aβ,3-dihydrogaliellalactone]",
,97,101,"COC(=O)[C@H](CS[C@H]1C2C(=O)O[C@@H]3CC[C@H](C[C@@H]1C)[C@]23O)NC(=O)[C@@H](N)C(C)C (stereo partly drawn) [Example 14, 3β-(N-(L-valine)-L-cysteinemethyl ester)-2aβ,3-dihydrogaliellalactone]",chemical stability in 0.1 M PBS (in words) [1]: chemically stable
,5,6,"C[C@@H]1C=C2C(=O)O[C@@H]3CC[C@H](C1)[C@]23O [Galiellalactone, (−)-Galiellalactone, reference compound]","proliferation of DU145 prostate cancer cells (in words) [3]: inhibits the proliferation; AUC(0-inf) ([2]; mouse, oral administration 10 mg/kg, plasma galiellalactone): 95 ng·h/mL; % Remaining Proliferation (PC-3): 31%; % Remaining Proliferation (DU145): 18%; % Remaining Proliferation (LNCaP): 77%; inhibition of IL-6/STAT3 signaling (IL-6/STAT3 signaling): submicromolar; % Remaining Proliferation (IL-6 stimulated LNCaP): 17%"
,7.8,11,"COC(=O)[C@H](CS[C@H]1C2C(=O)O[C@@H]3CC[C@H](C[C@@H]1C)[C@]23O)NC(=O)c1ccccc1F (stereo partly drawn) [Example 13, 3β-(N-(2-fluorobenzoyl)-L-cysteinemethyl ester)-2aβ,3-dihydrogaliellalactone]",
0.3,,,"C[C@H]1C[C@H]2CC[C@H]3OC(=O)C([C@@H]1N1CCCC1)[C@@]23O.Cl (stereo partly drawn) [drawing 45, reference compound]",
,150,155,"COC(=O)[C@H](CCS[C@H]1C2C(=O)O[C@@H]3CC[C@H](C[C@@H]1C)[C@]23O)NC(C)=O (stereo partly drawn) [Example 12, 3β-(N-acetyl-L-homocysteinemethyl ester)-2aβ,3-dihydrogaliellalactone]",
